# ChEMBL document CHEMBL6178019, “Discovery of CYP1A1 Inhibitors for Host-Directed Therapy against Sepsis” (J Med Chem, 2025)
# Assays:
# Type in all cases: cell-based
# CYP1A1 [1] = target: T1, CYP1A1 (Homo sapiens, UniProt P04798); assay: Inhibition of CYP1A1 in human Caco-2 cells assessed as relative activity by measuring fold change at 500 nM incubated for 12 hrs by EROD assay relative to control; details: read-out: FC
# T1 sequence (P04798 whole entry): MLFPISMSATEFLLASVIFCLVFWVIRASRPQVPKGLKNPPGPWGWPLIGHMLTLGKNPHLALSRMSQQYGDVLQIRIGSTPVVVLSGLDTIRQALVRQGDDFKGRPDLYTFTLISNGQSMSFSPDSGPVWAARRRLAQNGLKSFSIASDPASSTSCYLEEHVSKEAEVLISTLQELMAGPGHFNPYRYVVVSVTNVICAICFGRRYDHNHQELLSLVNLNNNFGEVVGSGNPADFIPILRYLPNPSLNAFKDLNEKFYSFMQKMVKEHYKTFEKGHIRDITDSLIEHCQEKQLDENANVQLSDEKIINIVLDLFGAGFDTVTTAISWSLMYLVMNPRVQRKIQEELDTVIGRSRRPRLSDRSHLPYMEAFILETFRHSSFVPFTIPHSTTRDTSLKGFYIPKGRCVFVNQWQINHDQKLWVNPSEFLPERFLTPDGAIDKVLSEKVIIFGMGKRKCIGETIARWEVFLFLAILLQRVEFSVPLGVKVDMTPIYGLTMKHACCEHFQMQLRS
# CYP1A1 [2] = target: T2, CYP1A1 (Mus musculus, UniProt P00184); assay: Inhibition of CYP1A1 in mouse RAW264.7 cells assessed as relative activity by measuring fold change at 500 nM incubated for 12 hrs by EROD assay relative to control; details: read-out: FC
# T2 sequence (P00184 whole entry): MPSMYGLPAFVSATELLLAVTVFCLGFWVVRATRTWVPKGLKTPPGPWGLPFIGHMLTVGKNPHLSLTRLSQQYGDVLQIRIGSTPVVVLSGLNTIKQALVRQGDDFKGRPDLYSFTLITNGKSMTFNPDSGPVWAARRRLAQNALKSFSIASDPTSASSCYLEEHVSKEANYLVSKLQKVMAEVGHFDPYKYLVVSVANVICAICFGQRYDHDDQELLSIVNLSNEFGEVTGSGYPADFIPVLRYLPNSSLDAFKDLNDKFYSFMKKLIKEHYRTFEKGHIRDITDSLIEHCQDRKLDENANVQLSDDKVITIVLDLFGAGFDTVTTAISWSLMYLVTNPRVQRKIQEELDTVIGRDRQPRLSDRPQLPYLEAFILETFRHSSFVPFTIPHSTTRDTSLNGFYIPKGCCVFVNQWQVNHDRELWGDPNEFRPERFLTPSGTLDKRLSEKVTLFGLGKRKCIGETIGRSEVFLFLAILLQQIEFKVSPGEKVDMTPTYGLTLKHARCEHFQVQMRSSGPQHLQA
# Cytochrome P450 1A1 [3] = target: T3, Cytochrome P450 1A1 (Homo sapiens, UniProt P04798); assay: Inhibition of CYP1A1 in human Caco-2 cells incubated for 12 hrs by EROD assay; details: caco-2, 12 h, at 50 to 5000 nM, dose 50-5000 nM
# T3 sequence (P04798 whole entry): T1 sequence (P04798 whole entry)
# CYP1A1 [4] = target: T1, CYP1A1; assay: Inhibition of CYP1A1 in human Caco-2 cells at 5 uM incubated for 12 hrs by EROD assay relative to control
# CYP1A1 [5] = target: T2, CYP1A1; assay: Inhibition of CYP1A1 in mouse RAW264.7 cells assessed as relative activity by measuring fold change at 5 uM incubated for 12 hrs by EROD assay relative to control; details: read-out: FC
# Cytochrome P450 1A1 [6] = target: T3, Cytochrome P450 1A1; assay: Inhibition of CYP1A1 in human Caco-2 cells assessed as relative activity by measuring fold change at 5.0 uM incubated for 12 hrs by EROD assay relative to control; details: caco-2, 12 h
# CYP1A1 [7] = target: T2, CYP1A1; assay: Inhibition of CYP1A1 in mouse RAW264.7 cells at 5 uM incubated for 12 hrs by EROD assay relative to control
"fold induction at 12 h, 0.5 µM (CYP1A1 [1])","fold induction at 12 h, 0.5 µM (CYP1A1 [2])",inhibition (INH) (Cytochrome P450 1A1 [3]),"inhibition at 12 h, 5 µM (CYP1A1 [4])","fold induction at 12 h, 5 µM (CYP1A1 [5])",fold change (FC) (Cytochrome P450 1A1 [6]),"inhibition at 12 h, 5 µM (CYP1A1 [7])",Compound
0.83,0.82,–,–,0.6,0.51,–,Cn1c(=O)n(C)c2cc(C(=O)/C=C/c3ccc(C#N)cc3)ccc21
0.97,0.79,–,–,0.64,0.37,–,Cn1c(=O)n(C)c2cc(C(=O)/C=C/c3ccc([N+](=O)[O-])cc3)ccc21
2.34,1.08,–,–,1.22,3.08,–,Cn1c(=O)n(C)c2cc(C(=O)/C=C/c3ccncc3)ccc21
0.18,1.07,–,–,0.14,0.01,–,C#Cc1cccc(/C=C/C(=O)c2ccc3c(c2)n(C)c(=O)n3C)c1
0.81,1.16,–,–,1.04,0.78,–,C#Cc1ccc(/C=C/C(=O)c2ccc(N(C)C(C)=O)cc2)cc1
0.52,1.05,–,–,0.54,0.24,–,CN(C)c1ccc(/C=C/C(=O)c2ccc3c(c2)n(C)c(=O)n3C)cc1
0.22,0.63,–,–,0.19,0.07,–,C#Cc1ccc(/C=C/C(=O)c2ccc3c(c2)n(C)c(=O)n3C)cc1
1.18,0.8,–,–,0.77,0.47,–,Cn1c(=O)n(C)c2cc(C(=O)/C=C/c3ccc4ccccc4c3)ccc21
0.57,0.93,–,–,0.67,0.18,–,Cn1c(=O)n(C)c2cc(C(=O)/C=C/c3ccoc3)ccc21

# The next lines start with the molecule.
Compound,"fold induction at 12 h, 0.5 µM (CYP1A1 [1])","fold induction at 12 h, 0.5 µM (CYP1A1 [2])",inhibition (INH) (Cytochrome P450 1A1 [3]),"inhibition at 12 h, 5 µM (CYP1A1 [4])","fold induction at 12 h, 5 µM (CYP1A1 [5])",fold change (FC) (Cytochrome P450 1A1 [6]),"inhibition at 12 h, 5 µM (CYP1A1 [7])"
Cn1c(=O)n(C)c2cc(C(=O)/C=C/c3ccccc3F)ccc21,0.32,1.17,Dose-dependent-effect,100%,1.02,0.04,–
Cn1c(=O)n(C)c2cc(C(=O)/C=C/c3ccsc3)ccc21,0.43,0.58,–,~80%,0.32,0.19,~80%
Cn1c(=O)n(C)c2cc(C(=O)/C=C/c3cccs3)ccc21,0.45,0.38,–,~80%,0.23,0.18,~80%
Cn1c(=O)n(C)c2cc(C(=O)/C=C/c3cccnc3Br)ccc21,0.63,0.94,–,–,0.22,0.22,–
Cn1c(=O)n(C)c2cc(C(=O)/C=C/C#C[Si](C)(C)C)ccc21,0.66,0.55,–,–,0.15,0.11,–
Cn1c(=O)n(C)c2cc(C(=O)/C=C/c3cc4ccccc4o3)ccc21,0.66,0.82,–,–,0.52,0.31,–
Cn1c(=O)n(C)c2cc(C(=O)/C=C/C3CC3)ccc21,0.71,0.8,–,–,0.38,0.12,–
Cn1c(=O)n(C)c2cc(C(=O)/C=C/c3ccc(F)cc3F)ccc21,0.68,0.74,–,–,0.56,0.42,–
Cn1c(=O)n(C)c2cc(C(=O)/C=C/C=C/c3ccccc3)ccc21,0.82,0.62,–,–,0.44,0.35,–
